58 compounds from the METLIN SMRT retention time set (Domingo-Almenara et al. 2019) can be followed below.

This data set is described as follows: gradient 5% acetonitrile 3 min, to 50% in 2 min, to 85% in 15 min, held 3 min, 100 µL/min. As to conditions: column: Zorbax Extend-C18 2.1 x 50 mm; eluents: water / acetonitrile, 0.1% formic acid. Summed up: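 A Zorbax Extend-C18 column (2.1 × 50 mm, 1.8 μm) run at 100 μL/min with water and acetonitrile, both containing 0.1% formic acid, separated mixtures of ~100 pure standards. The HPLC was coupled to a quadrupole time-of-flight mass spectrometer operated in positive and negative ionization mode, with dead and dwell volumes of 40 μL and 900 μL. Each retention time was taken from a computationally picked adduct peak that was then manually inspected.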
With `CCN(CC)S(=O)(=O)c1ccc2nc(NCc3cc(F)cc(F)c3)cnc2c1`, the RP-LC retention time worked out at 1060 s.
The compound `CCCn1c(=O)c(C)nc2cc(-c3noc(-c4cc(OC)cc(OC)c4)n3)ccc21` displayed an RP-LC retention time of 1090 s.
Then `O=C(O)c1ccc(N2CCOCC2)c(NC(=O)c2ccc(Br)cc2)c1`, with 828 s.
`CCOC(=O)c1ccc(NC(=O)N2CC=C(c3cn(CC)c4ncccc34)CC2)cc1` returned an RP-LC retention time of 606 s.
The figure for `Cc1ccc2cc(CCC(=O)NCCc3ccccn3)c(=O)[nH]c2c1` is 596 s; for `CO[C@H]1CN(C2CCN(S(=O)(=O)Cc3ccccc3F)CC2)[C@H]1c1ccncc1` it is 620 s; for `CN(C)[C@@H]1CN(C(=O)c2ccc(F)cc2Cl)C[C@H]1CO` it is 553 s.
Consider `CC(C)Oc1ccc(-c2noc(CCn3nc(-c4ccc(F)cc4)ccc3=O)n2)cc1`, for which the RP-LC retention time stood at 1100 s.
Compound `Cc1ccccc1-c1nc(CN2CCN(C(=O)NC3CCCC3)CC2)c(C)o1` gave an RP-LC retention time of 672 s.
Compound `Cc1ccc(C)c(NC(=O)N(C)CCc2noc(COc3ccccc3)n2)c1` registered an RP-LC retention time of 934 s.
Then `CCN(CC)S(=O)(=O)c1ccc2c(c1)N(CC(=O)NC1CC1)C(=O)C1CCCCN21` (stereo not drawn), with 681 s; and `CC(=O)N1CCc2cc(N3CC(C(=O)Nc4cc(C)ccc4F)CC3=O)ccc21` (stereo not drawn), with 743 s; and `COc1ccccc1OCC(=O)N1CCc2cc(-c3csc(C)n3)ccc21`, with 954 s.
Then `CCCNC(=O)c1ccc(-c2nc3cc(NS(=O)(=O)c4cnc[nH]4)ccc3n2C)cc1`, with 578 s; and `CCNS(=O)(=O)c1c(C)[nH]c(=O)[nH]c1=O`, with 550 s; and `COc1ccc(Cn2c(CO)cnc2SCC(=O)N2CCCc3ccccc32)cc1`, with 702 s.
Then `Cc1ccc(-c2c(-c3nn(C)c4ncnc(N5CC[C@H](N6CCCCC6)C5)c34)cnn2C)cc1`, with 657 s; and `Cc1ccc(CNC(=O)C2CCCN(c3nnc(C)c4c(C)n(-c5ccc(C)cc5)nc34)C2)cc1` (stereo not drawn), with 800 s; and `Nc1nc(-c2ccc(F)cc2)nn1C(=O)c1ccc(F)cc1`, with 969 s.
Turning to `O=C(Cc1ccccc1)N1CCCC1c1nc(-c2ccccc2Cl)no1` (stereo not drawn), the RP-LC retention time worked out at 994 s.
The compound `CCOC(=O)N1CCN(c2nc(F)c3c(c2F)S(=O)(=O)CCN3Cc2cccnc2)CC1` displayed an RP-LC retention time of 636 s.
The figure for `CSc1ncccc1C(=O)N1CCc2nc(C)ncc2C1` is 606 s.
The figure for `CCc1cc(=O)n(CC(=O)Nc2cc(Cl)ccc2C)c(N2CCOCC2)n1` is 771 s.
The figure for `CCn1cc(-c2nc(-c3ccc(C)cc3)no2)c(=O)c2cc(F)c(N3CCOCC3)cc21` is 961 s; for `O=C(NCCN1CCc2ccccc2C1)c1cccc2c1CCN2C(=O)C1CC1` it is 640 s.
As for `CC1CCC(NC(=O)C2CCN(C(=O)c3ncn4c3COC(c3ccccc3)C4)CC2)CC1` (stereo not drawn), the RP-LC retention time was 816 s.
Then `CCn1cc(C(=O)Nc2ccc(F)c(F)c2)c(S(=O)(=O)N2CCC(C)CC2)n1`, with 1170 s.
The figure for `COc1ccc(-n2nc3c(N4CCCC(C(=O)NC5CCCCC5)C4)nnc(C)c3c2C)cc1` (stereo not drawn) is 732 s; for `CC(C)Cn1ccc2c(cc(C(=O)Nc3ccc(OC(F)(F)F)cc3)n2C)c1=O` it is 1020 s; for `c1ccc(-n2cnnc2C2CCCCN2Cc2ccncc2)cc1` (stereo not drawn) it is 584 s.
Then `Cc1noc(COC2CCCN(C(=O)c3ccc4cc[nH]c4c3)C2)n1` (stereo not drawn), with 570 s; and `Cc1noc(C)c1CN1CCN(C(=O)c2cc(F)cc(F)c2)CC1`, with 563 s; and `CCc1nn2c(CNC(=O)c3ccsc3)c(-c3ccccc3)nc2s1`, with 854 s.
With `CCOc1ccc(S(=O)(=O)N2CCC(C(=O)NC3CCCCC3)CC2)cc1`, the RP-LC retention time was determined as 922 s.
Then `O=S(=O)(c1ccc2nncn2c1)N(Cc1ccccc1)c1cccc(F)c1`, with 851 s; and `COc1ccc(CN(Cc2ccccc2)Cc2cc(=O)n3cc(Cl)ccc3n2)cc1OC`, with 687 s; and `COc1ccc(C(C)NC(=O)CCc2nnc3c4cc(-c5ccc(F)cc5)nn4ccn23)cc1OC` (stereo not drawn), with 722 s.
Then `O=C(c1ccoc1)N1CCN(C(=O)c2nnn3c2COC(c2ccccc2)C3)CC1` (stereo not drawn), with 767 s; and `CN(CCc1noc(COc2ccc(F)cc2)n1)C(=O)Nc1ccccc1Cl`, with 962 s; and `Cc1nn(C)cc1S(=O)(=O)Nc1ccc(C(F)(F)F)cc1`, with 753 s.
Then `COc1ccc(CNC(=O)Nc2c(-c3cccc(C)c3)nc3ccccn23)cc1`, with 651 s; and `O=C(NCC(=O)N1CCOC(c2ccccc2)C1)c1ccc(-c2ccccc2)cc1` (stereo not drawn), with 893 s.
`O=C1NCCOCCCN(C(=O)Nc2ccc3c(c2)OCCO3)[C@H]2CCCC[C@@H]12` came in with an RP-LC retention time of 665 s.
The figure for `COC(=O)c1c(-c2ccc(Cl)cc2)noc1NCCN1CCN(C)CC1` is 660 s; for `CCn1nccc1-c1csc(S(=O)(=O)NCc2cccs2)c1` it is 866 s; for `O=C(C1=CN(c2cccc(Br)c2)c2cc(F)ccc2S1(=O)=O)N1CCCC1` it is 863 s.
As to `COc1ccc(C2Cn3nnc(-c4nc(-c5ccccc5OC)no4)c3CO2)cc1` (stereo not drawn), the RP-LC retention time is 1010 s.
Then `Cc1cc(C)nc(Nc2nc(C(=O)NCCn3nc(-c4ccco4)ccc3=O)cs2)n1`, with 693 s.
Then `CCNC(=O)N1CCC(OC(C)=O)CC1`, with 586 s; and `Cc1ccc(S(=O)(=O)N2C(=O)CCC2C(=O)Nc2ccc(C)c(C)c2)cc1` (stereo not drawn), with 973 s; and `Cc1cc(N2CCN(C(=O)COc3ccc(Cl)cc3)CC2)nc2nncn12`, with 629 s.
Then `CC1CCCN(CC2CCN(S(=O)(=O)c3ccc(F)cc3Cl)CC2)C1` (stereo not drawn), with 673 s; and `Cc1ccccc1CC(=O)N1CCCC(COc2ccc(C(=O)N3CCOCC3)cc2)C1` (stereo not drawn), with 811 s; and `O=C(Nc1cccc(Cl)c1)c1nnc(COCC(=O)N2CCN(c3ccccn3)CC2)s1`, with 657 s.
In turn, `Cc1oc(-c2[nH]ncc2C(=O)N2CCCC2)cc1S(=O)(=O)Nc1ccc(F)cc1F` yielded an RP-LC retention time of 698 s.
The figure for `CCn1cc(C(=O)Nc2cc(Cl)ccc2C)c2cccnc21` is 922 s; for `CN(C)CC1CCC2=C(C1=O)C(c1ccc(Cl)c(Cl)c1)C1=C(CCC(CN(C)C)C1=O)O2` (stereo not drawn) it is 584 s; for `CCOC(=O)c1[nH]c(C)c(CN(Cc2ccco2)C(=O)c2ccc(N(C)C)cc2)c1C` it is 894 s.
